# Experimental data: publication PMC7436000, “The Spectrum of Design Solutions for Improving the Activity-Selectivity Product of Peptide Antibiotics against Multidrug-Resistant Bacteria and Prostate Cancer PC-3 Cells” (Molecules, 2020)
# Read-outs that look alike come from different tables or passages of the source. Peptide text beside a SMILES is read from it.
# What was measured:
# standard ATCC E. coli = conditions: cited from earlier work
# standard ATCC S. aureus = conditions: cited from earlier work
# lymphoma cell line U937 = test system: lymphoma cell line U937; set-up: method as in PMID 21403917; conditions: read-out: IC50 against lymphoma cell line U937; cited from earlier work
# [1] = cited from earlier work
# [2] = cited from earlier work; remark: listed apart in the source
# Excerpt: The MAPA analog of the MAP cell-penetrating peptide is five times less hemolytic and has at least two times stronger antibacterial activity than MAP [73] (Table 2). Accordingly, by introduced substitutions, we increased the selectivity index by at least one order of magnitude, and converted a strongly hemolytic, predominantly cell-penetrating peptide with no antibacterial selectivity (SI = 1, [73]), into a potent peptide antibiotic. MAP is an important molecule for engineering new anticancer agents, but as far as we can tell, MAPA is the first known selective anticancer MAP an ...
# [3] = test system: Gram-negative and Gram-positive bacteria; conditions: cited from earlier work
# Excerpt: (§1) In the ZYK1 example, the parent peptide already has selective antimicrobial and antitumor activity. […] It follows that the TI for the paren ...
# [4] = test system: HeLa (human cervical carcinoma cells) and HL60 (human promyelocytic leukemia cells); conditions: two selected cancer cell lines; read-out: IC50 against HeLa and HL60; cited from earlier work
# Excerpt: as §1
# [5] = test system: human neonate chondrocytes; conditions: cited from earlier work
# Excerpt: as §1
# human erythrocytes [6] = conditions: cited from earlier work
# Excerpt: The cell-penetrating ability is inherent to some amphipathic peptides with a high percentage of cationic residues. More than five arginines are required to direct membrane penetration through the eukaryotic membrane. This condition is fulfilled by guananin 2, the PenArg analog of penetratin, and T2R1, but not by T2. Penetratin, with the sequence […], is a well-known cell-penetrating peptide, which is furthermore an antimicrobial and anticancer peptide. That peptide is, to some degree, toxic to HeLa and Jurkat cancer cell lines. The toxicity to HeLa ...
# E. coli clin. isolate = format: cell-based, Escherichia coli
# Excerpt: (§2) The American Type Culture Collection (ATCC, Rockville, MD, USA) strains and Escherichia coli MG1655 were used as standard bacterial strains. Gram-negative ATCC strains consisted of Escherichia coli (ATCC 25922), Pseudomonas aeruginosa (ATCC 27853), Acinetobacter baumannii (ATCC 19606), and Klebsiella pneumoniae (ATCC 13883). The only Gram-positive standard strain chosen for testing was Staphylococcus aureus (ATCC 29213). Clinical isolates with confirmed multidrug-resistance phenotype were obtained from different wards of the University Hospital Center, Split, Croatia. We described their origin, antibiograms, and resistance phenotype previously. In the same paper, we described the procedure for antimicrobial susceptibility testing on planktonic cells, using the microdilution method in 96-well microtiter plates.
# (§3) Briefly, cells were grown on agar plates and a single colony was sampled to generate a liquid culture (LC) grown overnight at 37 °C. The culture was sampled, resuspended in fresh medium, and allowed to grow at 37 °C, until reaching the mid-exponential phase. Lysogeny broth (LB) was used in the case of the E. coli MG1655 cells. Mueller Hinton (MH) medium was used for all other bacterial strains. Serial 2-fold dilutions of the peptide (64 μM to 0.0625 μM) were prepared from peptide stock solution in PBS, and added to a final load of 5 × 10^5 CFU/mL in 100 μL total volume of medium per well in a 96-well plate (Brand 781660). Bacterial cultures were incubated with peptides for 18 h to 24 h at 37 °C. The minimum inhibitory concentration (MIC) was defined as the lowest concentration of the peptide, at which no visible bacterial growth was observed. The MIC for each of the tested peptides was determined in at least three individual assays under the same laboratory conditions. […] At the end of the incubation period for MIC or MBC, the determination of the OD600 was analyzed.
# P. aerug. clin. isolate = format: cell-based, Pseudomonas aeruginosa
# Excerpt: as §2, §3
# K. pneum. clin. isolate = format: cell-based, Klebsiella pneumoniae
# Excerpt: as §2, §3
# [7] = test system: Acinetobacter baumannii (ATCC 19606); format: cell-based
# Excerpt: as §2, §3
# [8] = test system: Escherichia coli (ATCC 25922); format: cell-based
# Excerpt: as §2, §3
# Escherichia coli MG1655 = format: cell-based
# Excerpt: as §2, §3
# [9] = test system: Klebsiella pneumoniae (ATCC 13883); format: cell-based
# Excerpt: as §2, §3
# [10] = test system: Pseudomonas aeruginosa (ATCC 27853); format: cell-based
# Excerpt: as §2, §3
# [11] = test system: Staphylococcus aureus (ATCC 29213); format: cell-based
# Excerpt: as §2, §3
# A. baum. clin. isolate = format: cell-based, Acinetobacter baumannii
# Excerpt: as §2, §3
# S. aureus clin. isolate = format: cell-based, Staphylococcus aureus
# Excerpt: as §2, §3
# human erythrocytes [12] = assay: Hemolysis of human erythrocytes; format: cell-based; conditions: 0.5% RBC in PBS, 1 h, 37 °C, absorbance 450 nm, triplicate; for HC10: concentration causing 10% hemolysis, 0.2% Triton = 100%; for HC20: concentration causing 20% hemolysis
# Method: Fresh blood was obtained from a healthy donor. Blood was stored in a tube containing EDTA at 4 °C and used within 24 h. Before use, 1 mL of blood was centrifuged (400× g, 10 min), and the supernatant was discarded. Moreover, 500 μL cold PBS with EDTA (1 mM) was added, mixed and centrifuged. The supernatant was discarded. Furthermore, 500 μL of cold PBS with EDTA (1 mM) was added, from which a dilution of 1% blood was made. Peptides were prepared in PBS at a 2 × concentration in 100 µL. […] The suspension was incubated at 37 °C for 1 h and centrifuged at 10,000× g for 5 min. […] After centrifugation, the supernatant was added to a 96-well microtiter plate (150–180 μL), and the absorbance was measured at 450 nm, using EnSight Multimode Plate Reader (PerkinElmer, Inc.). Each measurement was done in triplicate. […] We opted to also include the extrapolated HC50 in our results, to permit comparisons with older toxicity results. However, the HC20 measurements were used for ranking the peptides according to their selectivity and overall performance (Figure 1 and Figure 2 and Table 2).
# [13] = test system: human primary dermal fibroblasts; format: cell-based
# Method: (§4) Prostate cancer cells were donated by the University of Split, School of Medicine. Cells were cultured in RMPI-1640 medium, supplemented with 10% FBS, 1% Penicillin-Streptomycin, and 1% L-Glutamine. Human dermal fibroblasts were purchased from Biopredic (France) and cultured in DMEM medium, supplemented with 10% FBS and 1% Penicillin-Streptomycin. All cell lines were maintained in a humidified incubator with 5% CO2 at 37 °C. Cells were detached using the trypsin-EDTA solution and sub-cultured (7000 cells/well) in a 96-well plate overnight. Peptide stock solutions were prepared in PBS, and cancer cells were treated with 2-fold serial dilutions for 24 h at 37 °C, with 5% CO2. The toxicity of 6 selected peptides was assessed by a standard MTT assay. Treated cells were incubated with MTT working solution (0.5 mg/mL Thiazolyl Blue Tetrazolium Bromide) for 4 h at 37 °C with 5% CO2. Precipitated formazan was dissolved in 200 µL DMSO and absorbance was measured at 595 nm with EnSight Multimode Plate Reader (PerkinElmer, Inc.)
# [14] = test system: PC-3 prostate cancer cell line; format: cell-based, human
# Method: as §4
# [15] = multidrug-resistant clinical isolate, broth microdilution, MH medium, 18-24 h, 37 °C
# [16] = broth microdilution, MH medium, 5 × 10^5 CFU/mL, 18-24 h, 37 °C
molecule,measurement,setting,value
GIGKFLKKAKKFGKAFVKILKK [pexiganan],"MIC, standard ATCC E. coli",standard ATCC E. coli,6.5 µM
same,"MIC, standard ATCC S. aureus",standard ATCC S. aureus,6.5 µM
same,IC50,lymphoma cell line U937,4 µM
same,HC50 hemolytic activity,[1],45 µM
"KLALKLALKALKAALKLA [MAP, cell-penetrating peptide, template of mapegin]",antibacterial selectivity SI,[2],1
GIIKKIIKKIIKKI-NH2 [already known artificial AMP template of ZYK1],MIC values,[3],about 10 μM
same,IC50,[4],15 to 25 µM
same,IC50,[5],> 40 µM
"RQYMRQIEQALRYGYRISRR [guananin 2, arginine-rich designed peptide from the literature]",selectivity index,human erythrocytes [6],about 24
CC[C@H](C)[C@H](NC(=O)CN)C(=O)N[C@@H](CCCCN)C(=O)N[C@@H](CCCCN)C(=O)N[C@@H](Cc1c[nH]c2ccccc12)C(=O)N[C@H](C(=O)N[C@@H](CCCCN)C(=O)NCC(=O)N[C@H](C(=O)N[C@@H](C)C(=O)N[C@@H](CCCCN)C(=O)NCC(=O)N[C@H](C(=O)N[C@@H](C)C(=O)N[C@@H](CCCCN)C(=O)N[C@@H](CC(=O)O)C(=O)N[C@@H](CC(C)C)C(=O)N[C@@H](C)C(=O)N[C@@H](CCCCN)C(=O)N[C@@H](CCCCN)C(=O)N[C@H](C(=O)N[C@@H](CC(C)C)C(N)=O)[C@@H](C)CC)C(C)C)C(C)C)C(C)C [FLEX] (H-GIKKWVKGVAKGVAKDLAKKIL-NH2),MIC (E. coli clin. isolate),E. coli clin. isolate; clin. isolate,0.5 µM
same,MIC (P. aerug. clin. isolate),P. aerug. clin. isolate,2 to 4 µM
same,MIC (K. pneum. clin. isolate),K. pneum. clin. isolate,2 to 4 µM
same,MIC (A. baum. ATCC 19606),[7]; ATCC 19606,0.5 to 1 µM
same,MIC (E. coli ATCC 25922),[8]; ATCC 25922,0.25 µM
same,MIC (E. coli MG1655),Escherichia coli MG1655; MG1655,16 µM
same,MIC (K. pneum. ATCC 13883),[9]; ATCC 13883,0.5 to 1 µM
same,MIC (P. aerug. ATCC 27853),[10]; ATCC 27853,2 µM
same,MIC (S. aureus ATCC 29213),[11]; ATCC 29213,0.25 µM
same,MIC (A. baum. clin. isolate),A. baum. clin. isolate,1 µM
same,MIC (S. aureus clin. isolate),S. aureus clin. isolate; clin. isolate,4 µM
same,HC10,human erythrocytes [12],6 µM
same,HC20,human erythrocytes [12],25 µM
same,IC50,[13]; 24 h,30 µM
same,(TI/ IC50C) vs. MP1,[14]; 24 h,18.5
same,IC50,[14]; 24 h,6.25 µM
same,TI (HC20/IC20C),[14]; 24 h,25
same,TI (IC50F/IC50C),[14]; 24 h,4.8
same,TI/ IC50C,[14]; 24 h,0.77
CC[C@H](C)[C@H](NC(=O)[C@H](CCCCN)NC(=O)[C@H](CCCCN)NC(=O)CNC(=O)[C@@H](NC(=O)[C@@H](N)CCCCN)[C@@H](C)CC)C(=O)N[C@@H](CC(C)C)C(=O)N[C@@H](CCCCN)C(=O)N[C@@H](C)C(=O)N[C@@H](CC(C)C)C(=O)N[C@@H](CCCCN)C(=O)NCC(=O)N[C@@H](C)C(=O)N[C@@H](CC(C)C)C(=O)N[C@@H](CCCCN)C(=O)N[C@@H](CCC(=O)O)C(=O)N[C@@H](CC(C)C)C(=O)N[C@@H](C)C(N)=O [MAPA] (H-KIGKKILKALKGALKELA-NH2),MIC (E. coli clin. isolate),"E. coli clin. isolate; multidrug-resistant clinical isolate, broth microdilution, MH medium, 5 × 10^5 CFU/mL, 18-24 h, 37 °C",8 to 16 µM
same,MIC (P. aerug. clin. isolate),P. aerug. clin. isolate; [15],32 µM
same,MIC (K. pneum. clin. isolate),K. pneum. clin. isolate; [15],8 µM
same,MIC (A. baum. ATCC 19606),[7]; [16],1 to 2 µM
same,MIC (E. coli ATCC 25922),"[8]; broth microdilution, MH medium, 5 × 10^5 CFU/mL, 18-24 h, 37 °C, at least three assays",1 to 2 µM
same,MIC (E. coli MG1655),"Escherichia coli MG1655; broth microdilution, LB medium, 5 × 10^5 CFU/mL, 18-24 h, 37 °C, at least three assays",4 µM
same,MIC (K. pneum. ATCC 13883),[9]; [16],8 µM
same,MIC (P. aerug. ATCC 27853),[10]; [16],32 to 64 µM
same,MIC (S. aureus ATCC 29213),[11]; [16],0.5 µM
same,PEa(20) = SI/MIC(aureus),"[11]; overall performance, product of SI (20) and 1/MIC, S. aureus ATCC 29213",12 µM⁻¹
same,MIC (A. baum. clin. isolate),A. baum. clin. isolate; [15],4 µM
same,MIC (S. aureus clin. isolate),S. aureus clin. isolate; [15],8 µM
same,HC10,human erythrocytes [12],1.7 µM
same,HC20,human erythrocytes [12],3 µM
same,HC50,human erythrocytes [12]; concentration causing 50% hemolysis,20 µM
same,IC50,"[13]; MTT assay, 7000 cells/well, 24 h treatment, 37 °C, 5% CO2, absorbance 595 nm, read-out: IC50F (Fibroblasts)",25 µM
same,IC50,"[14]; MTT assay, 7000 cells/well, 24 h treatment, 37 °C, 5% CO2, absorbance 595 nm, read-out: IC50C (PC-3)",8 µM
same,TI (HC20/IC20C),[14]; human erythrocytes vs PC-3,1
same,TI/ IC50C,"[14]; performance, product of TI and anticancer activity (1/IC50C)",0.39
same,(TI/ IC50C) vs. MP1,[14]; relative performance with respect to MP1 control peptide,9.3
same,TI (IC50F/IC50C),"[14]; therapeutic index, fibroblasts vs PC-3",3.1
